According to ChEMBL document CHEMBL1649307, “Development, validation, and routine application of a high-performance liquid chromatography method coupled with a single mass detector for quantification of itraconazole, voriconazole, and posaconazole in human plasma” (Antimicrob Agents Chemother, 2010):

How the values were obtained:
Type in all cases: ADME, organism-based
Conditions in all cases: in vivo
Plasma [1] = experiment: Metabolic stability in healthy human plasma assessed as compound recovery at 3 mg/kg QD; set-up: dose 3 mg/kg
Plasma [2] = experiment: Metabolic stability in healthy human plasma assessed as compound recovery at 6 mg/kg BID; set-up: dose 6 mg/kg
Plasma [3] = experiment: Metabolic stability in healthy human plasma assessed as compound recovery at 7 mg/kg BID; set-up: dose 7 mg/kg

CCC(C)n1ncn(-c2ccc(N3CCN(c4ccc(OCC5COC(Cn6cncn6)(c6ccc(Cl)cc6Cl)O5)cc4)CC3)cc2)c1=O (stereo not drawn) [ITRACONAZOLE]
Stability (Plasma [1]): 114.5%

CC[C@@H]([C@H](C)O)n1ncn(-c2ccc(N3CCN(c4ccc(OC[C@@H]5CO[C@@](Cn6cncn6)(c6ccc(F)cc6F)C5)cc4)CC3)cc2)c1=O [POSACONAZOLE]
Stability (Plasma [2]): 85.5%

C[C@@H](c1ncncc1F)[C@](O)(Cn1cncn1)c1ccc(F)cc1F [VORICONAZOLE]
Stability (Plasma [3]): 97.2%
